Reference: US12577232B2, “N-heterocycle substituted tryptamine derivatives and methods of using” (ENVERIC B[…] INC., priority 2024, dated 2026)
Like-named read-outs stand apart in the source and are kept apart here.

Assays:
[1] = biological target: T1, human serotonin transporter (SERT) (Homo sapiens, UniProt P31645); assay: biochemical; format: binding
T1 construct: purchased PerkinElmer RBHSTM400UA
Procedure: A commonly applied SERT binding assay involves competition binding assays employing radiolabelled ligands. […] Radioactive binding assays were carried out using the Scintillation Proximity Assay (SPA). For saturation binding assay, mixtures of 9 μg of membrane containing human SERT was pre-coupled to 1 mg of SPA beads at room temperature in a tube rotator for 1 hour in binding buffer (50 mM Tris-HCl pH7.4, 120 mM NaCl, 5 mM KCl, 1 mM ascorbic acid, 10 μM pargyline HCl). […] After incubation, the samples are read on a MicroBeta 2 Microplate Counter. Non-specific binding was carried out in the presence of 200 μM of clomipramine hydrochloride (C7291-1G, Sigma). Equilibrium binding constant for imipramine (KD) was determined from saturation binding curve using one-site saturation binding analysis from GraphPad PRISM software (Version 9.2.0). All test compounds were dissolved to 100 mM in DMSO and dilutions were carried out in assay buffer. […] Ki values were calculated from the competition displacement data using the competitive binding analysis from GraphPad PRISM software. […] Vehicle (DMSO) without drug was used as a negative control.

5-HT2A receptor = biological target: T2, 5-HT2A receptor (Homo sapiens, UniProt P28223); assay: 5-HT2A receptor radioligand competition assay (SPA, [3H]ketanserin); format: binding; conditions: 1 nM [3H]ketanserin, membranes containing 5-HT2A
T2 construct: purchased PerkinElmer ES-313-M400UA
Procedure: Competition assays were performed as for 5-HT1A assays with the following differences. […] Determination of non-specific binding was carried out in the presence of […] of spiperone (S7395-250MG, Sigma-Aldrich). Equilibrium binding constant for ketanserin (Kd) was determined from saturation binding curves using the ‘one-site saturation binding analysis’ method in GraphPad PRISM software (Version 9.2.0).

[2] = system: human model (NT2) neurons; assay: Neuroplastogenicity (neurite outgrowth) assay in NT2 neurons; format: cell-based; design: key: a positive (+) designation indicating strong evidence of enhanced neurite outgrowth in drug-treated NT2 cells compared to vehicle-treated cells; a negative (−) designation indicating weak or no evidence of enhanced neurite outgrowth in drug-treated NT2 cells compared to vehicle-treated cells; conditions: 1 or 10 μM, 48 h, visual inspection vs vehicle (0.1% DMSO)
From the text: Classic psychedelics such as psilocybin and DMT show potential to treat anxiety and depression, and it has been theorized that such long-term improvements arise because these drugs rapidly and lastingly stimulate neuroplasticity (Calder and Hasler, 2023, Neuropsychopharmacol. 48:104-112). Thus, it was of interest to determine the potential of new compounds as neuroplastogens. Herein, we assess the capacity of various compounds to enhance neurite outgrowth in human model (NT2) neurons.
Human NT2/D1 precursor cells were purchased from the American Type Culture Collection (ATCC, Manassas, VA, USA). Neuronal differentiation was carried out as previously described (Roloff et al., 2015, PloS ONE 10:e0118536) with minor modifications. Firstly, NT2/D1 cells were seeded in T-25 suspension culture flasks (REF #690190, Greiner bio-one, Germany). Each flask contains a minimum of 5×10^6 cells in 10 ml of DMEM/F12 supplemented with 10% fetal bovine serum (FBS), 1% penicillin and streptomycin and 10 μM retinoic acid (RA) medium to start neuronal differentiation. The cells were cultured for 3 days in free floating medium. At the end of the incubation cells were trypsinized and collected by centrifugation, mechanically dispersed, and counted. Counted cells were seeded along Poly D-Lysine (PDL) coated cover slips (12 mm; diameter round, Fisher Scientific; GG-12-PDL) containing a minimum of 0.1×10^5 cells in culture medium without RA. The next day culture medium was replaced with RA medium containing 2% of FBS. These cells cultured for 5 days and two days later, RA medium was changed.
After cells had successfully attached and established along coverslips, the RA medium was replaced with new medium containing 2% FBS and one of the following: (1) test compound (1 or 10 μM), (2) RhoK (ROCK) inhibitor Y-27632 (1 μM) as a positive control (Dihydrochloride; Sigma-Aldrich) (Roloff et al., 2015, PloS ONE 10:e0118536); (3) DMT (1 or 10 μM) as a positive control (Calder and Hasler, 2023, Neuropsychopharmacol. 48:104-112), or (4) vehicle (0.1% DMSO) as a negative control. These cells were incubated for 48 hours under standard conditions (370C, 5% CO2). The cells cultured along coverslips were collected after 48 hours of treatment. The coverslips washed with calcium chloride and magnesium chloride-free phosphate buffered saline (PBS) pH 7.4 (Gibco, #70011-044) and fixed in paraformaldehyde (PFA) 4% in PBS (#J61899, thermoscientific) for 15 min at room temperature (RT) and washed three times with 0.01% of Triton-X100 in PBS (PBST) to remove remaining PFA and to permeabilize the cells. Non-specific binding sites were blocked with 5% of Bovine Serum Albumin (BSA) solution (#9048-46-8, Millipore) in PBST for 60 minutes at RT. Rabbit monoclonal antibody β-III-tubulin (1:5,000, ab52623, Abcam) was applied overnight (O/N) at 4° C. Next day cells are washed three times in PBST, neurons were incubated with secondary antibody Donkey anti-rabbit IgG(H+L) Alexa Fluor™ Plus488 (1:5000 #A32790, Invitrogen) for 1 hour at RT. These coverslips were mounted on Gluoromount-G™, with 4′6-diamidino-2′henylindoldihydrochloride (DAPI) (#E141818, Invitrogen). The immunofluorescence images were analyzed using an Olympus VS110 slide scanner microscope.
B-III-Tubulin immunofluorescence was quantified using ImageJ. Briefly, Corrected Total Cell Fluorescence (CTCF) was acquired for at least ˜8-10 representative cells, where CTCF=Integrated Density−[Area of selected cell*Mean Fluorescence of background]. The CTCF values, referred to herein as ‘signal intensities’, were used to calculate overall means±SD for each treatment. One-Way ANOVA was used to compare treatments. Further, the mean of each treatment was compared with the mean of the control treatment (RA-differentiated cells treated with vehicle, 0.1% DMSO) using Dunnett's multiple comparison procedure. […]

5-HT1A receptor = biological target: T3, 5-HT1A receptor (Homo sapiens, UniProt P08908); assay: 5-HT1A receptor radioligand competition assay (SPA, [3H]8-hydroxy-DPAT); format: binding; conditions: 0.5 nM hot 8-hydroxy-DPAT; membranes containing 5-HT1A
T3 construct: purchased Perkin Elmer 6110501400UA
T3 sequence (P08908 1-422): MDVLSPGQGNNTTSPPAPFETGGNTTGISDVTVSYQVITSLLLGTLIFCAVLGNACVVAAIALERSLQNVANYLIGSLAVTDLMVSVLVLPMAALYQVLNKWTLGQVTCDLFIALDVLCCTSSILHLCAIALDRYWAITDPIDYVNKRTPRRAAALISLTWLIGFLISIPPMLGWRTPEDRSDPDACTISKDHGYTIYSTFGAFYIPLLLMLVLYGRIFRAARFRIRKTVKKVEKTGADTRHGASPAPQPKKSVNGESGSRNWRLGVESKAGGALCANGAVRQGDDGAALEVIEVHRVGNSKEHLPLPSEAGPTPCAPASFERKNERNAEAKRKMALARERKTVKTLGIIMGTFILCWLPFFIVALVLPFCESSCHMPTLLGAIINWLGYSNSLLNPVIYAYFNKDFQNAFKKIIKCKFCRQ
Procedure: 5-HT1A receptor. […] After incubation, the samples were read on a MicroBeta 2 Microplate Counter (perkinelmer.com). Non-specific binding was carried out in the presence of 100 μM of metergoline (M3668-500MG, Sigma-Aldrich). Equilibrium binding constant for 8-hydroxy-DPAT (KD) was determined from a saturation binding curve using one-site saturation binding analysis from GraphPad PRISM software (Version 9.2.0). Test compound was dissolved to 100 mM in dimethylsulfoxide (DMSO), and dilutions were carried out in assay buffer. […] Ki values were calculated from the competition displacement data using the competitive binding analysis from GraphPad PRISM software. […] Conversely, blank preparations lacking any drug (simply termed ‘DMSO’ samples) were used as negative controls, in addition to those containing tryptophan which is not known to bind the 5-HT1A receptor.

T2 sequence (P28223 whole entry): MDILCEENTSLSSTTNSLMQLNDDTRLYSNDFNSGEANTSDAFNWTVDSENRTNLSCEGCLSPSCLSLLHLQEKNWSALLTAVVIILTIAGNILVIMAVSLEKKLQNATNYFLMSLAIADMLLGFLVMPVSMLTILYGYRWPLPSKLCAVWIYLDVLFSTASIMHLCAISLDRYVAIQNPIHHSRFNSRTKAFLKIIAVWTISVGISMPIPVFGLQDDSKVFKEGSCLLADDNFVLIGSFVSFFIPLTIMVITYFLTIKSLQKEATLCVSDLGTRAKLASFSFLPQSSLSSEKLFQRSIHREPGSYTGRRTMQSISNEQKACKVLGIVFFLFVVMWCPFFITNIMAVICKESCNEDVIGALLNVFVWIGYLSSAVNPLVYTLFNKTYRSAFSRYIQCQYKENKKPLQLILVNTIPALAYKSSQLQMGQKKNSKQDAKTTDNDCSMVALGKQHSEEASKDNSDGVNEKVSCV
T1 sequence (P31645 whole entry): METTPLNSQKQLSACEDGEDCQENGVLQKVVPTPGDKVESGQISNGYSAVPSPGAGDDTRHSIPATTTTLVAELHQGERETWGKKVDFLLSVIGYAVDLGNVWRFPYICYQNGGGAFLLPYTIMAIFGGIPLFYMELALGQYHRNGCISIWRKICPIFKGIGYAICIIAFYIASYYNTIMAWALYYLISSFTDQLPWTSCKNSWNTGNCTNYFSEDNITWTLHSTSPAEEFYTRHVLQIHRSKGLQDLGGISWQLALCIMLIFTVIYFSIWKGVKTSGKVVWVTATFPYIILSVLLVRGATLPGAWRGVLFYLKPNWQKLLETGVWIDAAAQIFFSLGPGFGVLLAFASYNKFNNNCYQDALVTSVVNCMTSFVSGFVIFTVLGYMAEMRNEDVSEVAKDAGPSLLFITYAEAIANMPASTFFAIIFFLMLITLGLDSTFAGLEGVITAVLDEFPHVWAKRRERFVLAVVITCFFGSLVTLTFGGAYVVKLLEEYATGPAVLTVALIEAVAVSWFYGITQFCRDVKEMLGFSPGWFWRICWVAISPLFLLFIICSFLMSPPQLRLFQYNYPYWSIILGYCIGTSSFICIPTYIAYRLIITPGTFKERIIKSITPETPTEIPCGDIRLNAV

SMILES	Ki ([1]; 1 nM imipramine, membranes containing human SERT, read-out: SERT, Ki) [µM]	Ki (5-HT2A receptor; 5-HT2A, Ki) [µM]	Evidence of neurite outgrowth: Yes (+) or No (−) [2]	Ki [1] [µM]	Ki (5-HT2A receptor; read-out: 5-HT2A, Ki) [µM]	Ki (5-HT1A receptor) [µM]
CN(C)CCc1c[nH]c2ccccc12 [DMT, dimethyltryptamine, reference compound]	2.58	1.03	+	–	–	–
CNC(C)Cc1ccc2c(c1)OCO2 (stereo not drawn) [MDMA, 3,4-methylenedioxymethamphetamine, reference compound]	–	–	–	5.8	39.9	11
